Reference: patent publication US20080045595A1, “METHOD OF TREATING CANCER” (Myriad Genetics, Incorporated, priority 2004, published 2008)
pIC50: −log10 of the molar value. Entries after “also recorded” stand apart in the source; their conditions may differ.

What was measured:
[1] = tested on: MCF-7, a human breast cancer cell line; assay: Cytotoxicity (ATPLite cell growth inhibition), Example 1, MCF-7 cells; assay type: cell-based; details: MCF7a, 72 hours exposure, ATPLite assay, mean ± standard deviation, read-out: IC50 (concentration that inhibited growth by 50%)
Protocol: (§1) A. MCF-7, a human breast cancer cell line was obtained from ATCC (Catalog number: HTB-22)
(§2) MCF-7 cells were supplemented additionally with 10 μg/ml recombinant human insulin.
(§3) All compounds were tested triplicate.

[2] = tested on: NCI/ADR-RES, a multi drug resistant cell line over-expressing MDR-1; assay: Cytotoxicity (ATPLite cell growth inhibition), Example 1, MDR-1 over-expressing cells; assay type: cell-based; details: Homo sapiens, MDR1; NCI/ADR-RES cells (MDR-1 over-expressing), 72 hours exposure, ATPLite assay, mean ± standard deviation; read-out: IC50 (concentration that inhibited growth by 50%)
Protocol: B. NCl/ADR-RES, a multi drug resistant cell line over-expressing MDR-1 was obtained from NCl, Frederick, Md. This cell line has previously been called MCF-7/ADR by NCl.
as §2, §3

[3] = tested on: MCF-7, a human breast cancer cell line; assay: Cytotoxicity (ATPLite cell growth inhibition), Example 3, MCF-7 cells; assay type: cell-based; details: MCF7a, 72 hours exposure, ATPLite assay, mean ± standard deviation, read-out: IC50 (concentration that inhibited growth by 50%)
Protocol: as §1
(§4) All compounds were tested in triplicate.

[4] = tested on: MCF-7/MX, a multi drug resistant cell line over-expressing BCRP; assay: Cytotoxicity (ATPLite cell growth inhibition), Example 3, BCRP over-expressing cells; details: for pIC50: Homo sapiens, MCF7/MX, 72 h, read-out: IC50 (concentration that inhibited growth by 50%); for Difference in cytotoxic activity between normal (MCF-7) and BCRP over-expressing (MCF-7/MX) cell line: ratio of IC50 MCF-7/MX versus MCF-7
Protocol: Methods: The tumor cells were plated at 5,000 cells/well in a 96 well tissue culture plate and grown for 24 hours at 37° C. The cells were then exposed to various concentrations of 5-chloro-N-[2-(4-chloro-naphtalen-1-yloxy)-5-trifluoromethyl-phenyl]-2-hydroxy-benzamide, Camptothecin or Epirubicin for 72 hours and the inhibition of cell growth due to exposure to the drug was determined using the ATPLite assay. Data are expressed as the concentration that inhibited growth by 50%.
Stock solutions of compounds dissolved in DMSO were used to prepare compound dilutions for activity determination. 5-chloro-N-[2-(4-chloro-naphtalen-1-yloxy)-5-trifluoromethyl-phenyl]-2-hydroxy-benzamide was tested at a final concentration of 100 μM, 33.3 μM, 11.1 μM, 3.7 μM, 1.23 μM, 0.4 μM and 0.13 μM for both cell lines. CPT-11 was tested at 1 μM, 0.33 μM, 0.1 μM, 0.04 μM, 0.012 μM, 0.004 μM and 0.001 μM in MCF-7 cells and at 10 μM, 3.3 μM, 1.1 μM, 0.37 μM, 0.12 μM, 0.04 μM and 0.013 μM in MCF-7/MX cells. Epirubicin was tested at 10 μM, 3.3 μM, 1.1 μM, 0.37 μM, 0.12 μM, 0.04 μM and 0.013 μM for MCF-7 cells and at 100 μM, 33.3 μM, 11.1 μM, 3.7 μM, 1.23 μM, 0.4 μM and 0.13 μM for MCF-7/MX cells. The final concentration of DMSO in all cases was adjusted to 0.2% v/v.
Both cell lines were cultured in RPMI-1640 supplemented with 10% fetal bovine serum, 2 mM Glutamax, 1 mM sodium pyruvate, 0.1 mM non-essential amino acids, 10 μg/ml recombinant human insulin and 10 mM Hepes. All cell lines were grown at 37° C. in a humidified 5% CO2 atmosphere.
For testing the effect of compounds on cell growth, exponentially growing cells were harvested by trypsinization and plated in fresh growth medium at 50,000 cells/ml, one hundred microlitres cell suspension per well, in a 96-well flat-bottomed microtiter plate (Corning, Costar 3595). Twenty-four hours later, culture medium was replaced with fresh growth medium and varying concentrations of test compound.
For both cell lines, cells were incubated with compound for three days and cellular viability was determined at the end of the incubation by measuring intracellular ATP with ATPLite assay system. All compounds were tested in triplicate.
Effect of compounds on cell viability was calculated by comparing the ATP levels of cells exposed to test compound with those of cells exposed to DMSO. A semi-log plot of relative ATP levels versus compound concentration was used to calculate the compound concentration required to inhibit growth by 50% (IC50). Data was analyzed by Prism software (GraphPad; San Diego, Calif.) by fitting it to a sigmoidal dose response curve. The IC50 values obtained for individual data sets were combined to obtain a mean IC50 and standard deviation of the mean.

Oral bioavailability = assay type: in vivo; details: oral administration
[5] = tested on: MCF-7, a human breast cancer cell line; assay: Cytotoxicity (ATPLite cell growth inhibition), Example 2, MCF-7 cells; assay type: cell-based; details: MCF7a, 72 hours exposure, ATPLite assay, mean ± standard deviation, read-out: IC50 (concentration that inhibited growth by 50%)
Protocol: as §1, §4

[6] = tested on: MCF-7/VP, a multi drug resistant cell line over-expressing MRP-1; assay: Cytotoxicity (ATPLite cell growth inhibition), Example 2, MRP-1 over-expressing cells; assay type: cell-based; details: Homo sapiens, MCF7-VP; MCF-7/VP cells (MRP-1 over-expressing), 72 hours exposure, ATPLite assay, mean ± standard deviation; read-out: IC50 (concentration that inhibited growth by 50%)
From the text: Over-expression of the product of the ABCC1 gene encoding the multidrug resistance associated protein 1 confers resistance to a wide variety of agents including etoposide, methotrexate, cisplatins and anthracyclines. […] MCF-7/VP cells, a MCF-7 derivative selected for resistance to etoposide, over-express the MRP-1 protein (1).
B. MCF-7/VP, a multi drug resistant cell line over-expressing MRP-1 was obtained from Dr. Erasmus Schneider, Wadsworth Center, NYS Dept. of Health, Albany, N.Y. 12237.
as §4

Structure (SMILES)	pIC50 [1]	pIC50 [2]	pIC50 [3]	pIC50 [4]	Difference in cytotoxic activity between normal (MCF-7) and BCRP over-expressing (MCF-7/MX) cell line [4]	Bioavailability when administered orally (Oral bioavailability)	pIC50 [5]	pIC50 [6]
CC(=O)O[C@@]12CO[C@@H]1C[C@H](O)[C@@]1(C)C(=O)[C@H](O)C3=C(C)[C@@H](OC(=O)[C@H](O)[C@@H](NC(=O)OC(C)(C)C)c4ccccc4)C[C@@](O)([C@@H](OC(=O)c4ccccc4)[C@H]21)C3(C)C [Taxotere ®]	9.30	6.37						
CC[C@@]1(O)C(=O)OCc2c1cc1n(c2=O)Cc2cc3ccccc3nc2-1 [Camptothecin ®]			7.66	6.76	one-eighth			
CC[C@]1(O)C[C@@H]2CN(CCc3c([nH]c4ccccc34)[C@@](C(=O)OC)(c3cc4c(cc3OC)N(C)[C@H]3[C@@](O)(C(=O)OC)[C@H](OC(C)=O)[C@]5(CC)C=CCN6CC[C@]43[C@@H]65)C2)C1 [Vinblastine]	9.22	6.25						
O=C(Nc1cc(C(F)(F)F)ccc1Oc1ccc(Cl)c2ccccc12)c1cc(Cl)ccc1O [5-chloro-N-[2-(4-chloro-naphtalen-1-yloxy)-5-trifluoromethyl-phenyl]-2-hydroxy-benzamide]	6.13	6.12	6.13	5.83	two-fold; also recorded: twofold	low bioavailability	6.23	6.10
COc1cccc2c1C(=O)c1c(O)c3c(c(O)c1C2=O)C[C@@](O)(C(=O)CO)C[C@@H]3O[C@H]1C[C@H](N)[C@@H](O)[C@H](C)O1 [Epirubicin]			6.82	5.95	one-seventh		6.82	6.02
